The text below walks through data of PMC12040169 (PLOS Biology, 2025).

The data set is described as follows: in vitro. The conditions noted are these: human, hela cells, % viability.

The term viability denotes a read-out of living cells in per cent, often relative to untreated cells. In the case of `CC1(CNC(=O)c2cn3cc(Cl)ccc3n2)COC1` [CBK281748], the viability at 28.5 h, 10 µM was determined as 91.4%.
For `Cc1cccn2cc(C(=O)NCCCn3cccn3)nc12` [CBK281749], the viability at 28.5 h, 10 µM is 75.3%.
Regarding `CC1(CNC(=O)c2ccccc2Cn2cccn2)COC1` [CBK281750], the viability at 28.5 h, 10 µM came to 89.4%.
With `CC1(CNC(=O)c2cc(-c3cccc(F)c3)no2)COC1` [CBK281751], the viability at 28.5 h, 10 µM amounted to 87.7%.
The same measure for `CN(C)C(C(=O)NCC1(C)COC1)c1ccc(Cl)cc1` (stereo not shown) [CBK281753]: 102%.
For `Cc1cc(C)n(-c2ccc(C(=O)NCC3(C)COC3)cc2)n1` [CBK281756], the viability at 28.5 h, 10 µM was 92.1%.
On to `Cc1cc(C)n(C(C)C(=O)N(C)CCn2ccnc2C)n1` (stereo not shown) [CBK281759], for which the viability at 28.5 h, 10 µM was found to be 88.1%.
On to `Cc1ccccc1OCCCn1cncc1-c1cnn(C)c1` [CBK281762], for which the viability at 28.5 h, 10 µM worked out at 91.1%.
`CN(C)Cc1ccccc1Cn1cncc1-c1cnn(C)c1` [CBK281764]: the viability at 28.5 h, 10 µM stood at 99.5%.
With `Cc1cccc(C2(Cn3cncc3-c3cnn(C)c3)CCOCC2)c1` [CBK281765], the viability at 28.5 h, 10 µM is 79%.
For `Cc1cccc(OCCCn2cncc2-c2cn(C)nc2C)c1` [CBK281766], the viability at 28.5 h, 10 µM turned out to be 90%.
For the compound `CCn1cc(-c2cncn2CCCN2CCCCC2)cn1` [CBK281767], the viability at 28.5 h, 10 µM was 82.9%.
On to `CCn1cc(-c2cncn2CCCn2nc(C)cc2C)cn1` [CBK281770], for which the viability at 28.5 h, 10 µM amounted to 97.1%.
The same measure for `Cc1cc(C)n(CCCn2cncc2-c2cn(C)nc2C)n1` [CBK281772]: 94.8%; for `CCn1cc(-c2cncn2CC(C)n2nc(C)cc2C)cn1` (stereo not shown) [CBK281775]: 87.1%.
As to `CCn1cc(-c2cncn2CCOc2ccc(Cl)cc2)cn1` [CBK281776], the viability at 28.5 h, 10 µM came to 81.8%.
Consider `CCn1nc(C)c(-c2cncn2CC(C)n2nc(C)cc2C)c1C` (stereo not shown) [CBK281777], for which the viability at 28.5 h, 10 µM stood at 109%.
Turning to `COc1ccc2[nH]c(-c3cncn3CCCC(C)(C)CO)cc2c1` [CBK281778], the viability at 28.5 h, 10 µM is 90.9%.
Take `Cc1nn(C)cc1-c1cncn1CCN(C)C1CCCC1` [CBK281780]: the viability at 28.5 h, 10 µM worked out at 95.8%.
In the case of `CCn1nc(C)c(-c2cncn2CCn2nc(C)c(C)c2C)c1C` [CBK281782], the viability at 28.5 h, 10 µM turned out to be 98.8%.
The same measure for `Cc1nn(C)cc1-c1cncn1CCn1nc(C)c(C)c1C` [CBK281785]: 108%.
For the compound `Cc1nn(C)cc1-c1cncn1C(C)Cc1c(C)nn(C)c1C` (stereo not shown) [CBK281786], the viability at 28.5 h, 10 µM is 115%.
With `Cc1nn(C)cc1-c1cncn1CCCOc1ccc(Cl)cc1` [CBK281787], the viability at 28.5 h, 10 µM was determined as 87.5%.
The same measure for `Cc1nn(C)c(C)c1CCn1cncc1-c1ccc2c(c1)CC(C)N2C` (stereo not shown) [CBK281788]: 76%; for `CCCn1nc(C)c(-c2cncn2CCN(C)C2CCCC2)c1C` [CBK281790]: 91.3%; for `CCCn1nc(C)c(-c2cncn2CC(C)N2CCC(C)CC2)c1C` (stereo not shown) [CBK281791]: 85.2%.
As to `Cc1cc(C)n(C(C)Cn2cncc2-c2cn(C)nc2C)n1` (stereo not shown) [CBK281792], the viability at 28.5 h, 10 µM came to 102%.
The same measure for `CCCn1nc(C)c(-c2cncn2CC(C)n2nc(C)cc2C)c1C` (stereo not shown) [CBK281793]: 103%.
On to `Cc1ccc2c(C)c(-c3cncn3C(C)CN3CCOCC3)oc2c1` (stereo not shown) [CBK281796], for which the viability at 28.5 h, 10 µM came out at 107%.
`Cc1nn(C)cc1-c1cncn1Cc1ccc2c(c1)CCCO2` [CBK281797]: the viability at 28.5 h, 10 µM came to 90.4%.
`Cc1nn(C)cc1-c1cncn1C(C)c1ccc2c(c1)CCCO2` (stereo not shown) [CBK281798]: the viability at 28.5 h, 10 µM was 100%.
On to `Cc1nn(C)cc1-c1cncn1CC1(N(C)C)CCC(C)CC1` (stereo not shown) [CBK281799], for which the viability at 28.5 h, 10 µM amounted to 88.9%.
In the case of `CCC(CN1CCOCC1)n1cncc1-c1[nH]c2ccccc2c1C` (stereo not shown) [CBK281800], the viability at 28.5 h, 10 µM amounted to 106%.
Take `CN(C)CC(=O)N1CCc2nc(-c3cccc(F)c3)sc2C1` [CBK281801]: the viability at 28.5 h, 10 µM worked out at 106%.
Consider `Cc1nc2ccccn2c1CN1CCC(Oc2ccc(F)cc2)CC1` [CBK281803], for which the viability at 28.5 h, 10 µM came to 90.1%.
With `Cc1cc(C)n(C2CCN(Cc3cnn(C4CCCCC4)c3)CC2)n1` [CBK281804], the viability at 28.5 h, 10 µM amounted to 89.2%.
For `CCn1nc(C)c(-c2cncn2CC(C)N2CCCCC2)c1C` (stereo not shown) [CBK281808], the viability at 28.5 h, 10 µM turned out to be 102%.
The same measure for `CCN1CCCc2cc(-c3cncn3CCCn3ccnc3C)ccc21` [CBK281810]: 109%.
Turning to `Cc1ccccc1OCCCn1cncc1-c1cn(C)nc1C` [CBK281813], the viability at 28.5 h, 10 µM was 85.1%.
Take `CC12CCC(=O)N1CCCN2Cc1cnn(-c2ccc(F)cc2)c1` (stereo not shown) [CBK281819]: the viability at 28.5 h, 10 µM was 94.2%.
The same measure for `Cc1cc(=O)n(CC(=O)NC(C)c2ccccn2)c2ccccc12` (stereo not shown) [CBK281820]: 96.3%; for `Cc1nc2cc(C(=O)NC(C)c3ccccn3)ccc2n1C` (stereo not shown) [CBK281822]: 84.2%.
The same measure for `Cc1oc2c(c1C(=O)NC(C)c1ccccn1)CCCC2` (stereo not shown) [CBK281825]: 109%; for `Cc1cc(C)n(CCCN(C)Cc2ccc(N3CCCC3=O)cc2)n1` [CBK281827]: 88.3%.
The same measure for `CCn1c(C)nc2cc(NC(=O)Cn3cccn3)ccc21` [CBK281828]: 89.5%; for `O=C(Cn1cccn1)Nc1ccc2c(c1)CN(Cc1ccccc1)C2` [CBK281829]: 85.6%; for `CCn1c(C)nc2cc(NC(=O)c3c4c(nn3C)CCCC4)ccc21` [CBK281831]: 93.8%.
Take `CCn1c(C)nc2cc(NC(=O)Cn3cnc4ccccc43)ccc21` [CBK281832]: the viability at 28.5 h, 10 µM was determined as 94.1%.
For the compound `Cc1nc(C)c(C(=O)Nc2ccc3c(c2)CN(Cc2ccccc2)C3)o1` [CBK281835], the viability at 28.5 h, 10 µM is 91.2%.
The same measure for `CCn1c(C)nc2cc(NC(=O)c3cnn(C)c3)ccc21` [CBK281837]: 86.1%; for `Cn1cc(C(=O)Nc2ccc3c(c2)CN(Cc2ccccc2)C3)cn1` [CBK281838]: 94.8%.
Turning to `O=C(Cn1cccn1)N1CCc2[nH]c3ccccc3c2C1` [CBK281839], the viability at 28.5 h, 10 µM worked out at 92.6%.
On to `O=C(COCc1nc2ccccc2[nH]1)N1CCC(c2ccccc2)C1` (stereo not shown) [CBK281840], for which the viability at 28.5 h, 10 µM was determined as 97.7%.
The same measure for `Cc1nc2cc(C(=O)N3CCC(c4ccccc4)C3)ccc2n1C` (stereo not shown) [CBK281841]: 66.5%; for `O=C(Cn1ncc2ccccc2c1=O)N1CCC(c2ccccc2)C1` (stereo not shown) [CBK281843]: 90.7%.
On to `Cn1nc2c(c1C(=O)N1CCc3[nH]c4ccccc4c3C1)CCCC2` [CBK281844], for which the viability at 28.5 h, 10 µM came to 79.7%.
For `CCN1CCC(CC(=O)N2CCc3[nH]c4ccccc4c3C2)CC1` [CBK281846], the viability at 28.5 h, 10 µM came out at 86.5%.
Take `O=C(c1cc(-c2cccnc2)[nH]n1)N1CCC(c2ccccc2)C1` (stereo not shown) [CBK281849]: the viability at 28.5 h, 10 µM is 101%.
For the compound `O=C(c1n[nH]c2c1CCC2)N1CCC(c2ccccc2)C1` (stereo not shown) [CBK281851], the viability at 28.5 h, 10 µM came out at 87.9%.
On to `Cc1noc(C)c1CC(=O)N(C)CCN1CCCCC1` [CBK281855], for which the viability at 28.5 h, 10 µM was determined as 88.8%.
Consider `Cc1nccn1CCNC(=O)c1c2c(nn1C)CCCC2` [CBK281857], for which the viability at 28.5 h, 10 µM worked out at 100%.
